{"source": "patent US20110020272A1", "about": "“COMBINATION THERAPY FOR TREATING HEPATITIS VIRAL INFECTION” (priority 2009, published 2011)", "key": {"[1]": {"tested_on": "Luc-ubi-neo/ET Replicon cells", "test": "Cytotoxicity in Replicon cells", "type": "cell-based, human", "conditions": "750 nM PI and 0.5 U/ml IFN", "procedure": "Luc-ubi-neo/ET-cells were seeded and incubated with PI and IFN (Roferon A, Roche) for 24 hours on the following day. […] After a 24 hour combined incubation, the medium was changed and cells were incubated for another 48 hours with PI alone. After these 3 days of incubation, HCV RNA replication was determined with respect to the non-treated control."}, "[2]": {"tested_on": "sub-genomic HCV Con 1 isolate in Luc-ubi-neo/ET Replicon cells", "test": "HCV RNA replication in Luc-ubi-neo/ET Replicon cells, combined/sequential PI and IFN", "type": "cell-based", "method": "Replicon cells are in general Luc-ubi-neo/ET Replicon cells, which are derived from Huh7 cells and which harbor a sub-genomic HCV Con 1 isolate with a luciferase reporter gene. These so-called Replicon cells allow for in vitro screening of antiviral substances by autonomous HCV RNA replication.\nAfter a 24 hour combined incubation, the medium was changed and cells were incubated for another 48 hours with PI alone. After these 3 days of incubation, HCV RNA replication was determined with respect to the non-treated control."}, "[3]": {"conditions": "PI and IFN 24 h, subsequently PI alone 48 h, 750 nM PI and 0.5 U/ml IFN"}}, "data": [{"smiles": "O=C1CN(N=C[C@H](Cc2ccccc2)NC(=O)[C@H](Cc2c[nH]c3ccccc23)NC(=O)[C@H](Cc2c[nH]c3ccccc23)NC(=O)OCc2ccccc2)C(=O)N1", "note": "[S-2209, S,S,S-[1-[1-[1-Benzyl-2-(2,4-dioxo-imidazolidin-1-ylimino)-ethylcarbamoyl]-2-(1H-indol-3-yl)-ethylcarbamoyl]-2-(1H-indol-3-yl)-ethyl]-carbamic acid benzyl ester]", "values": [{"measurement": "cytotoxicity", "setting": "[1]", "result": "no cytotoxicity is observed"}, {"measurement": "basal replication (HCV RNA replication)", "setting": "[2]; [3]", "result": "approximately 10%"}, {"measurement": "inhibition of RNA replication", "setting": "[2]; [3]", "result": 90, "unit": "%"}, {"measurement": "effect of combination of PI and IFN on HCV-bearing cells", "setting": "[2]; combined or sequential treatment", "result": "synergistic effect"}, {"measurement": "inhibition of HCV RNA replication", "setting": "[2]; initial experiments, IFN 0.5 U/ml, PI 500-1000 nM", "result": "only a low inhibition"}]}]}
